# In US12201694B2, “Hydrogel compositions” (Hyderabad Eye Institute, priority 2018, dated 2025):
# Legend:
# [1] = physiological pH; well known; cited from earlier work
# C. albicans ATCC200955 = assay: Minimal inhibitory concentration (MIC); type: cell-based, Candida albicans; details: C. albicans ATCC200955 (Amp-B non-sensitive)
# Procedure: (§1) C. albicans cells, laboratory strain SC5314 or ATCC90028, were cultured on solid BHI (Oxoid) medium at 37° C. for 24 hours and stored at 4° C. for up to one month. Prior to experiments, a colony of C. albicans was sub-cultured into liquid BHI medium overnight at 37° C. Overnight cultures of C.albicans were adjusted to an optical density at 600 nm of 0.1 and incubated with Amphotericin polymers, which were serially diluted 1:2 from 2500-2.44 μg/ml, for 16 hours in a 96 well plate. The concentration of polymer at which there was no visible growth was determined to be the MIC. C.albicans (Robin) ATCC200955, C.tropicalis ATCC200956, A.flavus ATCC16883 and F. keratoplasticum ATCC36031 were similarly cultured on solid Sabrauds (Oxoid) medium at 37° C. for 24 hours and stored at 4° C. for up to one month. Prior to experiments, colonies were sub-cultured into liquid Sabrauds medium overnight at 37° C. All liquid cultures were static apart from A.flavus which was incubated shaking at 100 rpm.
# C. albicans ATCC90028 = assay: Minimal inhibitory concentration (MIC), no visible growth after 16 h; type: cell-based, Candida albicans
# Procedure: as §1
# C. albicans SC5314 = assay: as above; type: cell-based, Candida albicans
# Procedure: as §1
# C. tropicalis ATCC200956 = assay: Minimal inhibitory concentration (MIC); type: cell-based, Candida tropicalis; details: C. tropicalis ATCC200956 (Amp-B non-sensitive)
# Procedure: as §1, with “Overnight cultures of C.albicans were adjusted to an optical density at 600 nm of 0.1 and incubated with Amphotericin polymers, which were serially diluted 1:2 from 2500-2.44 μg/ml, for 16 hours in a 96 well plate.” left out
# [2] = system: F. keratoplasticum ATCC36031; assay: Minimal inhibitory concentration (MIC); type: cell-based, Fusarium keratoplasticum; details: F. keratoplasticum ATCC 36031
# Procedure: as §1
# A. flavus ATCC16883 = assay: Minimal inhibitory concentration (MIC); type: cell-based, Aspergillus flavus; details: A. flavus ATCC 16883
# Procedure: as §1
# [3] = literature reference [19]; cited from earlier work
# [4] = from weight MIC and molar density
smiles,measurement,setting,value
C[C@@H]1[C@H](O)[C@@H](C)/C=C/C=C/C=C/C=C/C=C/C=C/C=C/[C@H](O[C@@H]2O[C@H](C)[C@@H](O)[C@H](N)[C@@H]2O)C[C@@H]2O[C@](O)(C[C@@H](O)C[C@@H](O)[C@H](O)CC[C@@H](O)C[C@@H](O)CC(=O)O[C@H]1C)C[C@H](O)[C@H]2C(=O)O [Amphotericin B],solubility in water and saline solution,[1],insoluble
same,Weight based MIC,C. albicans ATCC200955,>2500 µg·mL
same,Weight based MIC,C. albicans ATCC90028; C. albicans ATCC90028,0.5 µg·mL
same,MIC against ATCC90028,"C. albicans ATCC90028; C. albicans ATCC90028, 16 hours",4 µg/mL
same,Molar MIC,"C. albicans ATCC90028; C. albicans ATCC90028, from weight MIC and molar density",4800 µM
same,Weight based MIC,C. albicans SC5314; C. albicans SC5314,0.4 µg·mL
same,MIC against SC5314,"C. albicans SC5314; C. albicans SC5314, 16 hours",0.4 µg/mL
same,Molar MIC,"C. albicans SC5314; C. albicans SC5314, from weight MIC and molar density",500 µM
same,Weight based MIC,C. tropicalis ATCC200956,>2500 µg·mL
same,Weight based MIC,[2],0.2 µg·mL
same,Molar MIC,[2]; [4],250 µM
same,Weight based MIC,A. flavus ATCC16883,1.5 µg·mL
same,Molar MIC,A. flavus ATCC16883; [4],1800 µM
same,MIC for amphotericin B,[3],4.68 to 150 µM
